Measured values from US20220282217A1, “COMPOSITIONS AND METHODS FOR PREPARING T CELL COMPOSITIONS AND USES THEREOF” (priority 2019, published 2022).
Where two headings read alike, the source gives them in different places. Where a SMILES comes first, the peptide text is derived from it.

Tests used:
HLA-A01.01 = HLA-A01.01 (Homo sapiens, UniProt P04439, A114D/A174V/A182V/D101N/D185E/E176A/E190D/L180R/Q94H/R68K/S129P/T187R/V100A/V91M/W191G); assay: Class I MHC peptide binding affinity (displacement of radiolabeled reference peptide)
Summary of the method: (§1)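 Displacement format in which varying amounts of peptide compete for 2 days with a radiolabeled reference ligand prebound to class I MHC, residual complex-associated label being measured after gel-filtration separation.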

HLA-A02.01 [1] = target: T1, HLA-A02.01 (Homo sapiens, UniProt P04439, D140Y/D185E/D98H/E176V/E277Q/G131W/G231S/I119V/I121R/I166T/I218V/N151K/N90K/P208A/P217A/Q86G/Q94H/R138H/R169H); assay: Class I MHC peptide binding stability (pMHC-I dissociation, 125I-labeled light chain); conditions: allele A02.01
T1 construct: made in house; host or cells: E. coli

HLA-A02.01 [2] = target: HLA-A02.01 (Homo sapiens, UniProt P04439, D140Y/D185E/D98H/E176V/E277Q/G131W/G231S/I119V/I121R/I166T/I218V/L300P/L318F/N151K/N90K/P208A/P217A/Q86G/Q94H/R138H/R169H/T345S); assay: Class I MHC peptide binding affinity (displacement of radiolabeled reference peptide); conditions: allele A02.01; read-out: Observed Affinity (IC50; (nM))
Summary of the method: as §1

HLA-A24.02 [3] = assay: as above; set-up: species or system human
HLA-A24.02 [4] = assay: Class I MHC peptide binding stability (pMHC-I dissociation, 125I-labeled light chain); set-up: species or system human; conditions: for Stability (T1/2 (h)): allele A24.02
[5] = Observed Affinity (IC50, (nM)), allele A01.01
[6] = allele A01.01, read-out: Observed Affinity (IC50, (nM))
[7] = allele A24.02, read-out: Observed Affinity (IC50, (nM))

| IC50 (HLA-A01.01; [6]) | Stability (T1/2 (h)) (HLA-A02.01 [1]) | IC50 (HLA-A02.01 [2]) | IC50 (HLA-A24.02 [3]; [7]) | Stability (T1/2 (h)) (HLA-A24.02 [4]) | Structure (SMILES) | other results |
| --- | --- | --- | --- | --- | --- | --- |
| 15500 nM | – | – | – | – | CC(C)[C@H](NC(=O)[C@H](CCC(=O)O)NC(=O)[C@H](CC(N)=O)NC(=O)[C@H](CO)NC(=O)CNC(=O)[C@@H](N)[C@@H](C)O)C(=O)N[C@H](C(=O)N[C@H](C(=O)N[C@@H](CCCNC(=N)N)C(=O)N[C@@H](Cc1ccc(O)cc1)C(=O)O)[C@@H](C)O)[C@@H](C)O (H-TGSNEVTTRY-OH; N-terminus and C-terminus assumed) | – |
| 606 nM | – | – | – | – | CC(C)[C@H](NC(=O)[C@H](CCC(=O)O)NC(=O)[C@H](CC(N)=O)NC(=O)[C@H](CO)NC(=O)CN)C(=O)N[C@H](C(=O)N[C@H](C(=O)N[C@@H](CCCNC(=N)N)C(=O)N[C@@H](Cc1ccc(O)cc1)C(=O)O)[C@@H](C)O)[C@@H](C)O (H-GSNEVTTRY-OH; N-terminus and C-terminus assumed) | – |
| – | – | – | 5 nM | – | CSCC[C@H](NC(=O)[C@H](Cc1ccc(O)cc1)NC(=O)[C@@H](N)CCC(=O)O)C(=O)N[C@@H](C)C(=O)N[C@@H](CC(N)=O)C(=O)NCC(=O)N[C@@H](CO)C(=O)N[C@@H](CC(C)C)C(=O)N[C@@H](CC(C)C)C(=O)O (H-EYMANGSLL-OH; N-terminus and C-terminus assumed) | IC50 (HLA-A24.02 [3]; BTK C481S peptide, HLA Allele A24.02, read-out: Affinity): 4.96 nM; Stability (half-life (hr.)) (HLA-A24.02 [4]; BTK C481S peptide, HLA Allele A24.02): 343 min |
| – | – | 797 nM | 444 nM | 6.3 h | CSCC[C@H](NC(=O)[C@H](CCC(=O)O)NC(=O)[C@H](CC(C)C)NC(=O)[C@H](CC(C)C)NC(=O)[C@H](CC(C)C)NC(=O)CNC(=O)[C@H](Cc1ccc(O)cc1)NC(=O)[C@H](CC(C)C)NC(=O)[C@@H]1CCCN1)C(=O)N[C@@H](CC(C)C)C(=O)O (H-PLYGLLLEML-OH; N-terminus and C-terminus assumed) | – |

The remaining lines, values behind:

| Structure (SMILES) | IC50 (HLA-A01.01; [6]) | Stability (T1/2 (h)) (HLA-A02.01 [1]) | IC50 (HLA-A02.01 [2]) | IC50 (HLA-A24.02 [3]; [7]) | Stability (T1/2 (h)) (HLA-A24.02 [4]) | other results |
| --- | --- | --- | --- | --- | --- | --- |
| CC[C@H](C)[C@H](N)C(=O)N[C@@H](CC(C)C)C(=O)N[C@@H](CC(=O)O)C(=O)N[C@H](C(=O)N[C@@H](C)C(=O)NCC(=O)N[C@@H](CC(C)C)C(=O)N[C@@H](CCC(=O)O)C(=O)N[C@@H](CCC(=O)O)C(=O)N[C@@H](Cc1ccc(O)cc1)C(=O)O)[C@@H](C)O (H-ILDTAGLEEY-OH; N-terminus and C-terminus assumed) | – | – | – | – | – | IC50 (HLA-A01.01; [5]): 8.6 nM |
| CC[C@H](C)[C@H](NC(=O)[C@H](CCCCN)NC(=O)[C@H](Cc1ccc(O)cc1)NC(=O)[C@@H](NC(=O)[C@@H](NC(=O)[C@H](CC(=O)O)NC(=O)[C@H](CO)NC(=O)[C@H](CCSC)NC(=O)[C@@H](N)C(C)C)[C@@H](C)O)[C@@H](C)O)C(=O)N[C@@H](Cc1ccc(O)cc1)C(=O)O (H-VMSDTTYKIY-OH; N-terminus and C-terminus assumed) | – | – | – | – | – | IC50 (HLA-A01.01): 376 nM |
| CC[C@H](C)[C@H](NC(=O)[C@H](CC(=O)O)NC(=O)[C@H](Cc1ccccc1)NC(=O)[C@H](CC(C)C)NC(=O)[C@@H](NC(=O)[C@H](CCC(=O)O)NC(=O)[C@@H](NC(=O)[C@H](CCSC)NC(=O)[C@@H](N)Cc1c[nH]c2ccccc12)[C@@H](C)O)[C@@H](C)O)C(=O)N[C@H](C(=O)O)C(C)C (H-WMTETLFDIV-OH; N-terminus and C-terminus assumed) | 14400 nM | 0.4 h | 40 nM | – | – | – |
| CC(C)C[C@H](NC(=O)[C@H](CC(C)C)NC(=O)[C@H](CC(C)C)NC(=O)CNC(=O)[C@H](Cc1ccc(O)cc1)NC(=O)[C@H](CC(C)C)NC(=O)[C@@H]1CCCN1C(=O)[C@@H](NC(=O)[C@@H](N)C(C)C)C(C)C)C(=O)O | – | 0.6 h | 1040 nM | 658 nM | 0.8 h | – |
| CC[C@H](C)[C@H](NC(=O)[C@@H](NC(=O)[C@H](CC(C)C)NC(=O)[C@@H](NC(=O)[C@@H]1CCCN1C(=O)[C@H](CCCNC(=N)N)NC(=O)[C@H](Cc1c[nH]c2ccccc12)NC(=O)[C@H](CC(N)=O)NC(=O)[C@@H](N)CCSC)[C@@H](C)CC)[C@@H](C)O)C(=O)O (H-MNWRPILTI-OH; N-terminus and C-terminus assumed) | – | 3.8 h | 516 nM | 6980 nM | 0.2 h | – |
| CC[C@H](C)[C@H](N)C(=O)N[C@@H](CC(C)C)C(=O)N[C@@H](CC(=O)O)C(=O)N[C@H](C(=O)N[C@@H](C)C(=O)NCC(=O)N[C@@H](Cc1c[nH]cn1)C(=O)N[C@@H](CCC(=O)O)C(=O)N[C@@H](CCC(=O)O)C(=O)N[C@@H](Cc1ccc(O)cc1)C(=O)O)[C@@H](C)O (H-ILDTAGHEEY-OH; N-terminus and C-terminus assumed) | – | – | – | – | – | IC50 (HLA-A01.01; [5]): 64.2 nM |
